# Legend:
# Type in all cases: cell-based, human
# NK cells = test: Autophagy staining (CYTO-ID); settings: NK cells following ADU-S100 treatment
# Method: Autophagy Staining. Autophagy was assessed by vacuole staining to identify autophagolysosomes using the CYTO-ID Autophagy detection kit 2.0 (Enzo ENZ-51031-0050) according to manufacturer's instructions. Briefly, 5×10^5 isolated primary NK cells or TILs were incubated in T-cell growth media (TCGM) with 500 U/mL IL-2, which was refreshed every time the media was changed to ensure proper growth and selection. CLQ from the kit (Enzo 51005-CLQ) was used starting at the recommended initial dose of 10 μM compared with DMSO control. […] The media was collected, and flow cytometry was performed after staining following manufacturer's instructions with CYTO-ID Green Detection Reagent 2.
# MPM cell lines = test: CellTiter-Glo viability in MPM cell lines; settings: cultured in vitro
# Method: CellTiter-Glo luminescent cell viability assay. Cell viability was assessed using the CellTiter-Glo Luminescent Cell Viability assay (Promega, G7571) according to manufacturer's instructions. […] All conditions were tested in triplicate and plates were read on a Tecan Infinite Mplex Microplate Reader.
# MPM explants = test: Dynamic single-cell RNA sequencing of MPM explants
# Method: Dynamic single-cell RNA sequencing and data analysis. The previous protocol (Sehgal et al., J. Clin. Invest. 131:e135038 (2021)) was adapted to test S1 explants from MPM PDOTS. […] After 24 hours of treatment in a ULA dish, tumor spheroids were digested with trypsin in a 37° C. incubator for 5 minutes to obtain single-cell suspensions. Cells were loaded onto a 10× chromium instrument (10× Genomics) per manufacturer's instructions. ScRNA libraries were generated using the single cell 3′ reagent kit (10× Genomics) per the user guide. Quality control of the completed libraries was performed using a bioanalyzer high sensitivity DNA kit (Agilent) and then sequenced using the Illumina NextSeq 500 platform.
# Raw sequencing reads were processed using the 10× Genomics CellRanger bioinformatics pipeline v6.0.1. The assembled matrix was then fed into the standard workflow of the R package, Seurat v4.0.4. Genes that were expressed in at least 3 cells, and only cells that expressed at least […], were kept for downstream processing. Additionally, cells expressing more than 7000 genes and cells with more than 10% of UMIs mapping to mitochondrial genes were removed from the analysis. All the samples were prepared and sequenced together on the same platform. The filtered matrix was log-normalized using global scaling in Seurat. UMI and mitochondrial transcript content were used as regression parameters. The normalized matrix was scaled and centered gene-wise, and then underwent dimensionality reduction using principal component analysis (PCA) on the highly varying genes. After visual inspection of the PCA elbow plot, the top 10 PCs were chosen for further analysis. Clustering was performed on the chosen PCs using the shared nearest neighbor algorithm in Seurat with default parameters.
# A Uniform Manifold Approximation and Projection (UMAP) map was computed and plotted with the DimPlot module of Seurat. Cluster differential expression analysis was performed in Seurat using the FindMarkers command using the Wilcoxon rank sum test without thresholds. Contour plots overlayed onto UMAPs were generated with R package ggplot2 (Wickham, Springer-Verlag New York (2016)).
# Cell types were identified based on comparative analysis of the signatures published previously (Han et al., Cell 172:1091-1107 (2018); Muhl et al., Nat. Commun. 11:3953 (2020); Correia et al., Proc. Natl. Acad. Sci. U.S.A. 115:E5980-E5989 (2018); Gueugnon et al., Am. J. Pathol. 178:1033-42 (2011)), as well as marker genes identified in this study, which were used to remove genes ubiquitously expressed across cell subpopulations. Collagen-encoding genes were added to the fibroblast signature.
structure (smiles),measurement,setting,value
Nc1ncnc2c1ncn2[C@@H]1O[C@@H]2COP(=O)([S-])O[C@@H]3[C@H](O)[C@@H](COP([O-])(=S)O[C@H]2[C@H]1O)O[C@H]3n1cnc2c(N)ncnc21.[Na+].[Na+] (some centres unmarked) [ADU-S100],autophagic flux,NK cells,elevated
same,cytotoxicity in MPM cell lines,MPM cell lines,did not cause cytotoxicity
same,BST2 avg log2FC,MPM explants; 10 μM ADU-S100,2.86
same,C15orf48 avg log2FC,MPM explants; 10 μM ADU-S100,3.02
same,CCL5 avg log2FC,MPM explants; 10 μM ADU-S100,2.10
same,CMPK2 avg log2FC,MPM explants; 10 μM ADU-S100,2.19
same,CXCL1 avg log2FC,MPM explants; 10 μM ADU-S100,2.20
same,CXCL10 avg log2FC,MPM explants; 10 μM ADU-S100,3.10
same,CXCL11 avg log2FC,MPM explants; 10 μM ADU-S100,2.45
same,HES4 avg log2FC,MPM explants; 10 μM ADU-S100,2.07
same,HLA-B avg log2FC,MPM explants; 10 μM ADU-S100,2.09
same,HLA-C avg log2FC,MPM explants; 10 μM ADU-S100,2.08
same,IFI6 avg log2FC,MPM explants; 10 μM ADU-S100,4.76
same,IFI27 avg log2FC,MPM explants; 10 μM ADU-S100,4.89
same,IFI30 avg log2FC,MPM explants; 10 μM ADU-S100,2.24
same,IFI35 avg log2FC,MPM explants; 10 μM ADU-S100,2.69
same,IFIT1 avg log2FC,MPM explants; 10 μM ADU-S100,3.89
same,IFIT2 avg log2FC,MPM explants; 10 μM ADU-S100,3.99
same,IFIT3 avg log2FC,MPM explants; 10 μM ADU-S100,4.01
same,IFITM1 avg log2FC,MPM explants; 10 μM ADU-S100,3.42
same,IL1B avg log2FC,MPM explants; 10 μM ADU-S100,2.23
same,IL1RN avg log2FC,MPM explants; 10 μM ADU-S100,2.21
same,IL32 avg log2FC,MPM explants; 10 μM ADU-S100,3.43
same,IRF7 avg log2FC,MPM explants; 10 μM ADU-S100,2.44
same,ISG15 avg log2FC,MPM explants; 10 μM ADU-S100,5.19
same,ISG20 avg log2FC,MPM explants; 10 μM ADU-S100,3.89
same,LAP3 avg log2FC,MPM explants; 10 μM ADU-S100,2.78
same,LY6E avg log2FC,MPM explants; 10 μM ADU-S100,3.24
same,MDK avg log2FC,MPM explants; 10 μM ADU-S100,2.01
same,MX1 avg log2FC,MPM explants; 10 μM ADU-S100,2.84
same,OAS1 avg log2FC,MPM explants; 10 μM ADU-S100,3.40
same,OAS3 avg log2FC,MPM explants; 10 μM ADU-S100,2.02
same,OASL avg log2FC,MPM explants; 10 μM ADU-S100,3.01
same,PLAAT4 avg log2FC,MPM explants; 10 μM ADU-S100,2.38
same,PLSCR1 avg log2FC,MPM explants; 10 μM ADU-S100,2.64
same,RSAD2 avg log2FC,MPM explants; 10 μM ADU-S100,4.43
same,SAA1 avg log2FC,MPM explants; 10 μM ADU-S100,2.46
same,STAT1 avg log2FC,MPM explants; 10 μM ADU-S100,2.09
same,TFPI2 avg log2FC,MPM explants; 10 μM ADU-S100,2.88
same,TNFSF13B avg log2FC,MPM explants; 10 μM ADU-S100,2.03
same,WARS avg log2FC,MPM explants; 10 μM ADU-S100,3.24
same,WFDC2 avg log2FC,MPM explants; 10 μM ADU-S100,2.06
same,IL-33 expression in CAFs,MPM explants; 24 hours,potent and unique STING agonist induction
same,"CXCR3 ligand expression (CXCL9, CXCL10, CXCL11)","MPM explants; 24 hours, primarily MSLN positive tumor cells (cluster 1) and CAFs (clusters 4, 5)",strongly induced
same,TGFB1 expression,"MPM explants; MPM cluster 1 relative to clusters 0, 3",downregulated
same,NECTIN2 (CD112) expression in tumor cells,MPM explants; NK cell activating ligand,increased
same,HLA-A/B/C expression in tumor cells,MPM explants; NK cell inhibitory ligands,dose-dependent increases
same,ANGPTL4 avg log2FC,MPM explants; STING agonist treatment,−1.48
same,CCDC80 avg log2FC,MPM explants; STING agonist treatment,−1.57
same,CEMIP avg log2FC,MPM explants; STING agonist treatment,−1.20
same,ID1 avg log2FC,MPM explants; STING agonist treatment,−1.07
same,IGFBP4 avg log2FC,MPM explants; STING agonist treatment,−1.42
same,KRT19 avg log2FC,MPM explants; STING agonist treatment,−1.81
same,LDHA avg log2FC,MPM explants; STING agonist treatment,−1.16
same,NDRG1 avg log2FC,MPM explants; STING agonist treatment,−1.07
same,PABPC1 avg log2FC,MPM explants; STING agonist treatment,−1.11
same,PGK1 avg log2FC,MPM explants; STING agonist treatment,−1.04
same,RPL41 avg log2FC,MPM explants; STING agonist treatment,−1.09
same,RPS29 avg log2FC,MPM explants; STING agonist treatment,−1.10
same,RPSA avg log2FC,MPM explants; STING agonist treatment,−1.10
same,SERPINB3 avg log2FC,MPM explants; STING agonist treatment,−2.15
same,SERPINB4 avg log2FC,MPM explants; STING agonist treatment,−1.25
same,SERPINB7 avg log2FC,MPM explants; STING agonist treatment,−1.73
same,TGFBI avg log2FC,MPM explants; STING agonist treatment,−2.38
same,TPI1 avg log2FC,MPM explants; STING agonist treatment,−1.11
same,TUBA1A avg log2FC,MPM explants; STING agonist treatment,−1.02
same,"abundance of CD8 positive cell populations, including Tregs",MPM explants; high-dose treatment,depletion
same,PVR (CD155) expression in tumor cells,MPM explants; predominantly inhibitory ligand,decreased expression

# Source: patent publication US20260183396A1, “CXCR3 OVEREXPRESSION IN CAR-NK CELLS PRIMES MIGRATION/HOMING INTO THE TUMOR MICROENVIRONMENT” (DANA-FARBER CANCER INSTITUTE, INC., priority 2022, published 2026)
